The term IC50 denotes the point on the concentration scale where inhibition reaches its midpoint. A low value points to greater potency in that assay. For orientation: ED50 means the midpoint of the dose-response relation.

In one assay the target is T1, Sorbitol dehydrogenase (Homo sapiens, UniProt Q00796).
T1 sequence (Q00796 whole entry): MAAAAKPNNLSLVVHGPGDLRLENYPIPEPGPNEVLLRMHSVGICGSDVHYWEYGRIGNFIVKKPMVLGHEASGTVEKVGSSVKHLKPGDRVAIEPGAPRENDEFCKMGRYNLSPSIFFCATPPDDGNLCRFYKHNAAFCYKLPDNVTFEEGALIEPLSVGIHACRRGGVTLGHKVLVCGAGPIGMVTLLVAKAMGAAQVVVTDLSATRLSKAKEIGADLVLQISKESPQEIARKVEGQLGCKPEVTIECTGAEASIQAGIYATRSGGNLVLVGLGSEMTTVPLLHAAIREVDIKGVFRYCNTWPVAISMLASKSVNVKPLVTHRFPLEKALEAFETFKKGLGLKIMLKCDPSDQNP
Description: In vitro inhibitory activity against human SDH.
Take `CN(C)S(=O)(=O)N1CCN(c2ccnc(CO)n2)CC1`: the half-inhibitory concentration (IC50) was 0.246 µM. In other words, the sub-micromolar range.

`CO[C@@H](C)c1nccc(N2CCN(S(=O)(=O)N(C)C)CC2)n1` returned a half-maximal inhibitory concentration (IC50) of 0.486 µM.

`C[C@@H](O)c1nccc(N2CCN(S(=O)(=O)N(C)C)CC2)n1`: the midpoint of inhibition, the IC50, lay at 0.027 µM. Compared with the last compound, the IC50 is about 18-fold lower.

Regarding `CC(O)c1nccc(N2CCN(S(=O)(=O)N(C)C)CC2)n1` (stereo not drawn), the 50% inhibitory concentration (IC50) was found to be 0.173 µM.

The next assay deals with Rattus norvegicus. The assay is described as follows: In vivo inhibition of diabetic rat sciatic nerve fructose accumulation. The format is functional.
`CN(C)S(=O)(=O)N1CCN(c2ccnc(CO)n2)CC1` registered an ED50 of 14.1 mg/kg.

`CO[C@@H](C)c1nccc(N2CCN(S(=O)(=O)N(C)C)CC2)n1`: the 50% effective dose (ED50) amounted to 9 mg/kg.

For the compound `C[C@@H](O)c1nccc(N2CCN(S(=O)(=O)N(C)C)CC2)n1`, the ED50 came out at 1.6 mg/kg. Compared with the last compound, the ED50 is about 5.6-fold lower.

For `CC(O)c1nccc(N2CCN(S(=O)(=O)N(C)C)CC2)n1` (stereo not drawn), the ED50 is 2.4 mg/kg.

For the origin of these results see ChEMBL document CHEMBL1134443, “Sorbitol dehydrogenase inhibitors (SDIs): a new potent, enantiomeric SDI, 4-[2-1R-hydroxy-ethyl)-pyrimidin-4-yl]piperazine-1-sulfonic acid dimethylamide” (J Med Chem, 2001).
